Data on eleven molecules can be found in ChEMBL document CHEMBL1124469, “Synthesis and dopaminergic activity of 2-substituted octahydrobenzo[f]quinolines” (J Med Chem, 1989).

The target of assay [1] is D(2) dopamine receptor (Bos taurus) (UniProt P20288). The assay is described as follows: Low percent binding affinity for different states of the dopamine receptor D2 in bovine anterior pituitary membranes, using radioligand [3H]spiroperidol. Format: cell membranes.
Assay [2] has as its target T1, D(2) dopamine receptor (Bos taurus, UniProt P20288). The assay is described as follows: Low binding affinity for dopamine receptor D2 from bovine anterior pituitary membrane, using radioligand [3H]spiroperidol in bovine anterior pituitary membranes. Format: cell membranes.
The target in assay [3] is D(2) dopamine receptor (Bos taurus) (UniProt P20288). The assay is described as follows: Low percent binding affinity for different states of the Dopamine D-2 receptor in bovine anterior pituitary membranes, using radioligand [3H]spiroperidol. Format: cell membranes.
Assay [4] has as its target T1, D(2) dopamine receptor. Kind of assay: Low binding affinity for dopamine D-2 receptor from bovine anterior pituitary membrane, using radioligand [3H]spiroperidol.
The target of assay [5] is T1, D(2) dopamine receptor. Kind of assay: Low binding affinity for dopamine D-2 receptor from bovine anterior pituitary membrane, using radioligand [3H]spiroperidol in bovine anterior pituitary membranes. Format: cell membranes.
The target of assay [6] is D(2) dopamine receptor (Bos taurus) (UniProt P20288). The assay is described as follows: High percent binding affinity for different states of the Dopamine receptor D2 in bovine anterior pituitary membranes, using radioligand [3H]spiroperidol.
For assay [7], the target named is T1, D(2) dopamine receptor. The assay is described as follows: High binding affinity for dopamine D-2 receptor from bovine anterior pituitary membrane, using radioligand [3H]spiroperidol in bovine anterior pituitary membranes. Format: cell membranes.
Assay [8] addresses T1, D(2) dopamine receptor. Kind of assay: High binding affinity for dopamine D-2 receptor from bovine anterior pituitary membrane, using radioligand [3H]spiroperidol.

T1 sequence (P20288 whole entry): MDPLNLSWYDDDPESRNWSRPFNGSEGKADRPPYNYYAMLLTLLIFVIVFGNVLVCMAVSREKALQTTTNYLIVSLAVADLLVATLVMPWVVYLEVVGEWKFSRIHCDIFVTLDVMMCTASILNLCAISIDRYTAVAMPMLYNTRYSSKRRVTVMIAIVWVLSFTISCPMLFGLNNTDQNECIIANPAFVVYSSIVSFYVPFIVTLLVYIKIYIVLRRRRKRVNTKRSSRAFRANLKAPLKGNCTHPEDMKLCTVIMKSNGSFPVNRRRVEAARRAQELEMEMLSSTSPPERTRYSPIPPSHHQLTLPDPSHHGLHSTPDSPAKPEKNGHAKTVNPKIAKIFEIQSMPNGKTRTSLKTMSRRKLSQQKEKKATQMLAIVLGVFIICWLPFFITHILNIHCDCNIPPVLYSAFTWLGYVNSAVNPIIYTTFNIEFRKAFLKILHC
Chain of D(2) dopamine receptor (Bos taurus) (P20288 whole entry): as above

As usually defined, the Ki is a measure of affinity in units of concentration, obtained from inhibition or displacement. Higher therefore signals weaker binding. In assay [1], `CCCN1C[C@H](CSC)C[C@@H]2c3cccc(O)c3CC[C@H]21` gave a Low of 100%. In assay [2], this molecule registered an inhibition constant (Ki) of 250 nM.
In assay [3], `CCCN1C[C@H](C)C[C@@H]2c3cccc(O)c3CC[C@H]21` yielded a Low of 100%.
Consider `CCCN1C[C@H](CSC)C[C@@H]2c3ccc(O)c(O)c3CC[C@H]21`, for which the Low in assay [3] came out at 100%. The molecule also came in with a Ki in assay [4] of 1730 nM.
`CCCN1C[C@H](CC#N)C[C@@H]2c3cccc(O)c3CC[C@H]21` had an inhibition constant Ki in assay [5] of 5390 nM. The molecule further came in with a Low in assay [3] of 100%.
In turn, `CCCN1C[C@H](CC#N)C[C@@H]2c3ccc(O)c(O)c3CC[C@H]21` showed a Low in assay [3] of 100%. In assay [4], this molecule came in with a Ki of 1460 nM.
Take `CCCN1C[C@H](CSC)C[C@@H]2c3cc(O)ccc3CC[C@H]21`: the Ki in assay [5] worked out at 1210 nM; in assay [7], 14 nM. In assay [3], this molecule yielded a Low of 79%. In addition, the Percent of receptors in high-affinity state in assay [6] was determined as 21%.
For the molecule `CCCN1C[C@H](CC#N)C[C@@H]2c3cc(O)c(O)cc3CC[C@H]21`, the Ki in assay [8] was 6 nM; in assay [4] it was 360 nM. Moreover, in assay [3], the Low came to 56%. In assay [6], the Percent of receptors in high-affinity state was found to be 44%.
Turning to `CCCN1C[C@H](CC#N)C[C@@H]2c3cc(O)ccc3CC[C@H]21`, the inhibitory constant (Ki) came to 280 nM in assay [5] and 4 nM in assay [7]. The same molecule gave a Low in assay [3] of 70%. For the same molecule, in assay [6], the Percent of receptors in high-affinity state is 30%.
`CCCN1C[C@H](C)C[C@@H]2c3cc(O)ccc3CC[C@H]21`: the Ki in assay [8] was determined as 8 nM; in assay [4], 1940 nM. The molecule also registered a Low in assay [3] of 87%. The same molecule registered a Percent of receptors in high-affinity state in assay [6] of 13%.
Molecule `CCCN1C[C@H](CSC)C[C@@H]2c3cc(O)c(O)cc3CC[C@H]21` yielded a Low in assay [3] of 67%. For the same molecule, in assay [6], the Percent of receptors in high-affinity state was determined as 33%.
As to `NCCc1ccc(O)c(O)c1`, the Low in assay [3] is 69%. This molecule also had a High in assay [6] of 31%.
